Laboratory results reported in US9475814B2, “Chiral N-acyl-5,6,7(8-substituted)-tetrahydro-[1,2,4]triazolo[4,3-a]pyrazines as selective NK-3 receptor antagonists, pharmaceutical composition, methods for use in NK-3 receptor mediated disorders and chiral synthesis thereof” (Euroscreen S.A., priority 2011, dated 2016).
Like-named read-outs stand apart in the source and are kept apart here.

How the values were obtained:
human NK-3 receptor [1] = biological target: T1, human NK-3 receptor (Homo sapiens (Human), UniProt P29371); experiment: 3H-SB222200 binding competition assay with human NK-3 receptor
Method: ^3H-SB222200 Binding Competition Assay with Human NK-3 Receptor
The membranes were incubated with 5 nM ^3H-SB222200(ARC) in a HEPES 25 mM/NaCl 0.1M/CaCl2 1 mM/MgCl2 5 Mm/BSA 0.5%/Saponin 10 μg/ml buffer at pH 7.4 and various concentrations of compounds of the invention. The amount of ^3H-SB222200 bound to the receptor was determined after filtration by the quantification of membrane associated radioactivity using the TopCount-NXT reader (Packard).

human NK-3 receptor [2] = biological target: T1, human NK-3 receptor; experiment: Aequorin functional assay with human NK-3 receptor (antagonist testing vs NKA); format: cell-based; conditions: inhibition of NKA (3 nM, EC80) response, CHO cells expressing human NK3 receptor and apoaequorin
human NK1 receptor = human NK1 receptor (Homo sapiens (Human), UniProt P25103); experiment: Human NK1 [3H] substance P binding assay (selectivity)
human NK2 receptor = human NK2 receptor (Homo sapiens (Human), UniProt P21452); experiment: Human NK2 [125I]-Neurokinin A binding assay (selectivity)
hERG channel = hERG channel (Homo sapiens (Human), UniProt Q12809); experiment: hERG inhibition assay (manual patch-clamp, HEK 293 cells)
[3] = Table 6, membranes of CHO cells expressing human NK3 receptor, 5 nM 3H-SB222200, read-out: Ki
[4] = Table 7, human NK-3 receptor, read-out: NK3 Ki
[5] = read-out: NK1 Ki, CHO membranes, 2 nM [3H] substance P
[6] = read-out: NK2 Ki, CHO membranes, 0.1 nM [125I]-Neurokinin A
[7] = read-out: NK1 Ki, for the racemate, value measured for the racemate of the numbered compound
[8] = read-out: NK2 Ki, for the racemate, value measured for the racemate of the numbered compound

human NK2 receptor, sequence (P21452 whole entry): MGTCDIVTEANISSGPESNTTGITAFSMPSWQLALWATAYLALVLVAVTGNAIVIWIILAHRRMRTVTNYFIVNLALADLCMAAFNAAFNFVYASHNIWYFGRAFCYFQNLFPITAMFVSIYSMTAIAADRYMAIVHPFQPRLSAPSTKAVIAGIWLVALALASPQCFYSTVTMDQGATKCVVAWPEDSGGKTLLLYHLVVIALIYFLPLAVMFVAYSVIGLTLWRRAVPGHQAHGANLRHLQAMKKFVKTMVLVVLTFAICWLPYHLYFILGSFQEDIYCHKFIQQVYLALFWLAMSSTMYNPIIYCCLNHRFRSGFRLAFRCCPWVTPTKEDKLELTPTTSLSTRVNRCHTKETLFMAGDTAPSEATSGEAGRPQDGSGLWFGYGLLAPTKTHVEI
human NK1 receptor, sequence (P25103 whole entry): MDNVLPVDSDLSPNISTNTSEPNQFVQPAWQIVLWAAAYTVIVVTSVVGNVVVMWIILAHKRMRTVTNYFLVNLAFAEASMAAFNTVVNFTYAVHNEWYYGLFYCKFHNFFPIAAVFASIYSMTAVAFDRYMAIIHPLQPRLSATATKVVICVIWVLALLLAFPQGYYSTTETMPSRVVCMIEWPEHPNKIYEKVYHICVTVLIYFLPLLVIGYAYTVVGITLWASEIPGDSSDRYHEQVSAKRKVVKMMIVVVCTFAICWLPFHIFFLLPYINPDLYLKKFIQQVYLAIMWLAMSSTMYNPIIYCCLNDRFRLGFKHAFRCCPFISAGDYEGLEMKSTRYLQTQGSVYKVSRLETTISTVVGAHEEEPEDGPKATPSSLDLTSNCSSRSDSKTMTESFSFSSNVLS
hERG channel, sequence (Q12809 whole entry): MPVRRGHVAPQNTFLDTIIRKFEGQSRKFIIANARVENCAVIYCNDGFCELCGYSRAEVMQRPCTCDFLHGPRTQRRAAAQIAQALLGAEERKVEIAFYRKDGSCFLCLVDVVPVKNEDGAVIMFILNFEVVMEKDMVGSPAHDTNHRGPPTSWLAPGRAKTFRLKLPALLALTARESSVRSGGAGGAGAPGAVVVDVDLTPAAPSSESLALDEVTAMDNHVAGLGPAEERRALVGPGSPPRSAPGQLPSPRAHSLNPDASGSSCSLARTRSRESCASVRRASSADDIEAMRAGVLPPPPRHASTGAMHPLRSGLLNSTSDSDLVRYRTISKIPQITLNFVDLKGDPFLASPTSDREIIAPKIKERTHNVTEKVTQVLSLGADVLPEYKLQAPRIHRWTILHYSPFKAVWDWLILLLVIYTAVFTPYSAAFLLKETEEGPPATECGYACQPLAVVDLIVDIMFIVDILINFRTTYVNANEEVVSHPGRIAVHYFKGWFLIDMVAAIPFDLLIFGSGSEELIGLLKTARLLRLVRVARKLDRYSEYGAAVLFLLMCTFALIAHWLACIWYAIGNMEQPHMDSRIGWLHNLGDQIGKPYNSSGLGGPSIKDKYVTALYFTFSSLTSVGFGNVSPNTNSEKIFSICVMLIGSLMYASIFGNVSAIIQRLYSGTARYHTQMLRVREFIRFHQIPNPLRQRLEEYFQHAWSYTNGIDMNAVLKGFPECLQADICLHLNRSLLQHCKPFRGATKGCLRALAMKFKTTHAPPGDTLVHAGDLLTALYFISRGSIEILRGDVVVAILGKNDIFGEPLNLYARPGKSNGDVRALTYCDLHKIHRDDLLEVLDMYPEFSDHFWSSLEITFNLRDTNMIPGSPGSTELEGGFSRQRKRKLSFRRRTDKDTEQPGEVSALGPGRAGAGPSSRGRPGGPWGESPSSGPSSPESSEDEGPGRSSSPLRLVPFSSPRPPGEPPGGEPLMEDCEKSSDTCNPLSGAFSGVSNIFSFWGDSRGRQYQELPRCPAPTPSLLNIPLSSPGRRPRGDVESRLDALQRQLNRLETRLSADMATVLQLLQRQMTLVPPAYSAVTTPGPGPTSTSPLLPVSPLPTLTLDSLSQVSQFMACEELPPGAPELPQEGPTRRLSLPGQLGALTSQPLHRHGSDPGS
T1 sequence (P29371 whole entry): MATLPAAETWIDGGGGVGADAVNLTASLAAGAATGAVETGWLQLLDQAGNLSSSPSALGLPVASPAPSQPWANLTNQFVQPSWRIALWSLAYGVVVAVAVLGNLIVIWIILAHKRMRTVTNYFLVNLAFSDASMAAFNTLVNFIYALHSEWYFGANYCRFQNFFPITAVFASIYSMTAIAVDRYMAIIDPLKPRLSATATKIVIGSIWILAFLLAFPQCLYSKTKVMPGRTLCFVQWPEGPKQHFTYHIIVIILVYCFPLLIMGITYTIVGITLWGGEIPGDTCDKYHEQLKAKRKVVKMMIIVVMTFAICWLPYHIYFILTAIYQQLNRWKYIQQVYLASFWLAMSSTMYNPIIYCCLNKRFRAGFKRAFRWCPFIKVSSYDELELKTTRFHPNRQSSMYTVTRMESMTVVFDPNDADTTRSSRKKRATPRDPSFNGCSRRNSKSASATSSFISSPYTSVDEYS

| Structure (SMILES) | Ki (human NK-3 receptor [1]; [3]) [nM] | IC50 (human NK-3 receptor [2]) [nM] | further results |
| --- | --- | --- | --- |
| Cc1nc(-c2nnc3n2CCN(C(=O)c2ccc(-c4cccs4)cc2)[C@@H]3C)c(C)s1 [Compound 16, (R)-(3-(2,5-dimethylthiazol-4-yl)-8-methyl-5,6-dihydro-[1,2,4]triazolo[4,3-a]pyrazin-7(8H)-yl)(4-(thiophen-2-yl)phenyl)methanone] | 32 | 30 | – |
| CC(C)c1nc(-c2nnc3n2CCN(C(=O)c2ccc(-c4cccs4)cc2)[C@@H]3C)co1 [Compound 13, (R)-(3-(2-isopropyloxazol-4-yl)-8-methyl-5,6-dihydro-[1,2,4]triazolo[4,3-a]pyrazin-7(8H)-yl)(4-(thiophen-2-yl)phenyl)methanone] | 3 | 2 | – |
| C[C@@H]1c2nnc(-c3cccc(O)n3)n2CCN1C(=O)c1ccc(-c2cccs2)cc1 [Compound 31, (R)-(3-(6-hydroxypyridin-2-yl)-8-methyl-5,6-dihydro-[1,2,4]triazolo[4,3-a]pyrazin-7(8H)-yl)(4-(thiophen-2-yl)phenyl)methanone] | 22 | 18 | Ki (human NK-3 receptor [1]; [4]): 22 nM; Ki (human NK1 receptor; [5]): > 10000 nM; Ki (human NK2 receptor; [6]): > 10000 nM; IC50 (hERG channel): 20000 nM |
| Cc1nc(-c2nnc3n2CCN(C(=O)c2ccc(-c4cccs4)cc2)[C@@H]3C)sc1C [Compound 22, (R)-(3-(4,5-dimethylthiazol-2-yl)-8-methyl-5,6-dihydro-[1,2,4]triazolo[4,3-a]pyrazin-7(8H)-yl)(4-(thiophen-2-yl)phenyl)methanone] | 21 | 21 | IC50 (hERG channel): 12000 nM |
| Cc1cccc(-c2nnc3n2CCN(C(=O)c2ccc(-c4ccccc4)cc2)[C@@H]3C)n1 [Compound 29, (R)-[1,1′-biphenyl]-4-yl(8-methyl-3-(6-methylpyridin-2-yl)-5,6-dihydro-[1,2,4]triazolo[4,3-a]pyrazin-7(8H)-yl)methanone] | 23 | 18 | – |
| Cc1cc(-c2nnc3n2CCN(C(=O)c2ccc(-c4cccs4)cc2)[C@@H]3C)n(C)n1 [Compound 28, (R)-(3-(1,3-dimethyl-1H-pyrazol-5-yl)-8-methyl-5,6-dihydro-[1,2,4]triazolo[4,3-a]pyrazin-7(8H)-yl)(4-(thiophen-2-yl)phenyl)methanone] | 68 | 37 | – |
| CCc1nc(-c2nnc3n2CCN(C(=O)c2ccc(-c4cccs4)cc2)[C@@H]3C)cs1 [Compound 5, (R)-(3-(2-ethylthiazol-4-yl)-8-methyl-5,6-dihydro-[1,2,4]triazolo[4,3-a]pyrazin-7(8H)-yl)(4-(thiophen-2-yl)phenyl)methanone] | 5 | 3 | – |
| C=Cc1nc(-c2nnc3n2CCN(C(=O)c2ccc(-c4cccs4)cc2)[C@@H]3C)cs1 [Compound 7, (R)-(8-methyl-3-(2-vinylthiazol-4-yl)-5,6-dihydro-[1,2,4]triazolo[4,3-a]pyrazin-7(8H)-yl)(4-(thiophen-2-yl)phenyl)methanone] | 4 | 3 | – |
| CC(C)c1nc(-c2nnc3n2CCN(C(=O)c2ccc(-c4cccs4)cc2)C3)cs1 [Compound 18, (3-(2-isopropylthiazol-4-yl)-5,6-dihydro-[1,2,4]triazolo[4,3-a]pyrazin-7(8H)-yl)(4-(thiophen-2-yl)phenyl)methanone] | 20 | 10 | – |
| Cc1nc(-c2nnc3n2CCN(C(=O)c2ccc(-c4ccccc4)cc2)[C@@H]3C)co1 [Compound 12, (R)-[1,1′-biphenyl]-4-yl(8-methyl-3-(2-methyloxazol-4-yl)-5,6-dihydro-[1,2,4]triazolo[4,3-a]pyrazin-7(8H)-yl)methanone] | 70 | 58 | – |
| C[C@@H]1c2nnc(-c3csc(N(C)C)n3)n2CCN1C(=O)c1ccc(-c2cccs2)cc1 [Compound 17, (R)-(3-(2-(dimethylamino)thiazol-4-yl)-8-methyl-5,6-dihydro-[1,2,4]triazolo[4,3-a]pyrazin-7(8H)-yl)(4-(thiophen-2-yl)phenyl)methanone] | 7 | 7 | Ki (human NK-3 receptor [1]; [4]): 7 nM; Ki (human NK1 receptor; [7]): 6060 nM; Ki (human NK2 receptor; [8]): 9950 nM |
| O=C(c1ccc(-c2cccs2)cc1)N1CCn2c(nnc2-c2csc(C(F)(F)F)n2)C1 [Compound 4, (4-(thiophen-2-yl)phenyl)(3-(2-(trifluoromethyl)thiazol-4-yl)-5,6-dihydro-[1,2,4]triazolo[4,3-a]pyrazin-7(8H)-yl)methanone] | 56 | 50 | IC50 (hERG channel): > 30000 nM |
| Cc1csc(-c2nnc3n2CCN(C(=O)c2ccc(-c4ccccc4)cc2)C3)n1 [Compound 21, [1,1′-biphenyl]-4-yl(3-(4-methylthiazol-2-yl)-5,6-dihydro-[1,2,4]triazolo[4,3-a]pyrazin-7(8H)-yl)methanone] | 38 | 33 | – |
| Cc1coc(-c2nnc3n2CCN(C(=O)c2ccc(-c4cccs4)cc2)[C@@H]3C)n1 [Compound 26, (R)-(8-methyl-3-(4-methyloxazol-2-yl)-5,6-dihydro-[1,2,4]triazolo[4,3-a]pyrazin-7(8H)-yl)(4-(thiophen-2-yl)phenyl)methanone] | – | 12 | – |
| Cc1coc(-c2nnc3n2CCN(C(=O)c2ccc(-c4ccccc4)cc2)[C@@H]3C)n1 [Compound 27, (R)-[1,1′-biphenyl]-4-yl(8-methyl-3-(4-methyloxazol-2-yl)-5,6-dihydro-[1,2,4]triazolo[4,3-a]pyrazin-7(8H)-yl)methanone] | 51 | 51 | – |
| Cc1nc(-c2nnc3n2CCN(C(=O)c2ccc(-c4ccccc4)cc2)[C@@H]3C)cs1 [Compound 2, (R)-[1,1′-biphenyl]-4-yl(8-methyl-3-(2-methylthiazol-4-yl)-5,6-dihydro-[1,2,4]triazolo[4,3-a]pyrazin-7(8H)-yl)methanone] | 26 | 28 | – |
| Cc1csc(-c2nnc3n2CCN(C(=O)c2ccc(-c4ccccc4)cc2)[C@@H]3C)n1 [Compound 20, (R)-[1,1′-biphenyl]-4-yl(8-methyl-3-(4-methylthiazol-2-yl)-5,6-dihydro-[1,2,4]triazolo[4,3-a]pyrazin-7(8H)-yl)methanone] | 12 | 11 | – |
| C=Cc1nc(-c2nnc3n2CCN(C(=O)c2ccc(-c4cccs4)cc2)C3)cs1 [Compound 9, (4-(thiophen-2-yl)phenyl)(3-(2-vinylthiazol-4-yl)-5,6-dihydro-[1,2,4]triazolo[4,3-a]pyrazin-7(8H)-yl)methanone] | 19 | 18 | – |
| C[C@@H]1c2nnc(-c3coc(C4CC4)n3)n2CCN1C(=O)c1ccc(-c2cccs2)cc1 [Compound 15, (R)-(3-(2-cyclopropyloxazol-4-yl)-8-methyl-5,6-dihydro-[1,2,4]triazolo[4,3-a]pyrazin-7(8H)-yl)(4-(thiophen-2-yl)phenyl)methanone] | 11 | 9 | – |
| Cc1cccc(-c2nnc3n2CCN(C(=O)c2ccc(-c4cccs4)cc2)[C@@H]3C)n1 [Compound 30, (R)-(8-methyl-3-(6-methylpyridin-2-yl)-5,6-dihydro-[1,2,4]triazolo[4,3-a]pyrazin-7(8H)-yl)(4-(thiophen-2-yl)phenyl)methanone] | 10 | 11 | Ki (human NK-3 receptor [1]; [4]): 10 nM; Ki (human NK1 receptor; [5]): 17200 nM; Ki (human NK2 receptor; [6]): 5930 nM |
| Cc1noc(-c2nnc3n2CCN(C(=O)c2ccc(-c4cccs4)cc2)[C@@H]3C)n1 [Compound 23, (R)-(8-methyl-3-(3-methyl-1,2,4-oxadiazol-5-yl)-5,6-dihydro-[1,2,4]triazolo[4,3-a]pyrazin-7(8H)-yl)(4-(thiophen-2-yl)phenyl)methanone] | – | – | inhibition at 10 µM (human NK1 receptor; read-out: NK1 % inhibition at 10 μM, for the racemate): < 10%; Ki (human NK1 receptor; [7]): > 10000 nM; inhibition at 10 µM (human NK2 receptor; read-out: NK2 % inhibition at 10 μM, for the racemate): < 25%; Ki (human NK2 receptor; [8]): > 10000 nM |
| C=Cc1nc(-c2nnc3n2CCN(C(=O)c2ccc(-c4ccccc4)cc2)[C@@H]3C)cs1 [Compound 8, (R)-[1,1′-biphenyl]-4-yl(8-methyl-3-(2-vinylthiazol-4-yl)-5,6-dihydro-[1,2,4]triazolo[4,3-a]pyrazin-7(8H)-yl)methanone] | 7 | 7 | – |
| CCc1nc(-c2nnc3n2CCN(C(=O)c2ccc(-c4ccccc4)cc2)[C@@H]3C)cs1 [Compound 6, (R)-[1,1′-biphenyl]-4-yl(3-(2-ethylthiazol-4-yl)-8-methyl-5,6-dihydro-[1,2,4]triazolo[4,3-a]pyrazin-7(8H)-yl)methanone] | 11 | 10 | – |
| C=Cc1nc(-c2nnc3n2CCN(C(=O)c2ccc(-c4ccccc4)cc2)C3)cs1 [Compound 10, [1,1′-biphenyl]-4-yl(3-(2-vinylthiazol-4-yl)-5,6-dihydro-[1,2,4]triazolo[4,3-a]pyrazin-7(8H)-yl)methanone] | 36 | 20 | – |
| CC(C)c1nsc(-c2nnc3n2CCN(C(=O)c2ccc(-c4cccs4)cc2)[C@@H]3C)n1 [Compound 25, (R)-(3-(3-isopropyl-1,2,4-thiadiazol-5-yl)-8-methyl-5,6-dihydro-[1,2,4]triazolo[4,3-a]pyrazin-7(8H)-yl)(4-(thiophen-2-yl)phenyl)methanone] | 3 | 3 | – |
| CC(C)c1nc(-c2nnc3n2CCN(C(=O)c2ccc(-c4cccs4)cc2)C3)co1 [Compound 14, (3-(2-isopropyloxazol-4-yl)-5,6-dihydro-[1,2,4]triazolo[4,3-a]pyrazin-7(8H)-yl)(4-(thiophen-2-yl)phenyl)methanone] | 42 | 47 | – |
